# System: A. thaliana seedlings
# Assay: hypocotyl length assay (inhibition of hypocotyl elongation)
# Format: in vivo, A. thaliana Col-0
# Conditions: tZ standard at 0.14, 0.28 and 0.56 mg/L (mean of all treatments, no significant difference between them); seedlings grown in darkness, measured after 8 days
# Protocol: The bioactivity of the produced cytokinins was tested in A. thaliana by hypocotyl length assay. This assay is based on the capacity of cytokinins to inhibit hypocotyl elongation in A. thaliana seedlings (Cary et al., 1995, Plant Physiol., 107 (4): 1075-1082). Seeds of A. thaliana Col-0 were surface sterilized, sown on 0.5× Murashige and Skoog (MS) medium (Murashige and Skoog, 1962, Physiol. Plant., 15(13):473-497) (0.7% agar) without sucrose, and stratified in darkness for 3 days at 4° C. Seedlings were grown in complete darkness in a growth cabinet at 21°° C. Hypocotyl lengths were determined after 8 days of growth, and at least 15 seedlings were measured for each treatment.
compound,measurement,value
"C/C(=C\CNc1ncnc2nc[nH]c12)CO [tZ standard, trans-zeatin]",mean reduction in hypocotyl lengths,58%

# From patent US20240352494A1, “HETEROLOGOUS PRODUCTION OF […] YEASTS” (ADAMA CHILE SA, priority 2021, published 2024)
